Tests used:
[1] = target: ADAR (Homo sapiens, UniProt P55265); conditions: literature study; cited from earlier work
[2] = target: T1, ADAR1p110-WT (Homo sapiens, UniProt P55265); experiment: Biacore SPR binding to ADAR1p110-WT
T1 construct: made in house; host or cells: Sf9 cells (baculovirus)
T1 sequence (P55265 1-931 isoform P55265-5): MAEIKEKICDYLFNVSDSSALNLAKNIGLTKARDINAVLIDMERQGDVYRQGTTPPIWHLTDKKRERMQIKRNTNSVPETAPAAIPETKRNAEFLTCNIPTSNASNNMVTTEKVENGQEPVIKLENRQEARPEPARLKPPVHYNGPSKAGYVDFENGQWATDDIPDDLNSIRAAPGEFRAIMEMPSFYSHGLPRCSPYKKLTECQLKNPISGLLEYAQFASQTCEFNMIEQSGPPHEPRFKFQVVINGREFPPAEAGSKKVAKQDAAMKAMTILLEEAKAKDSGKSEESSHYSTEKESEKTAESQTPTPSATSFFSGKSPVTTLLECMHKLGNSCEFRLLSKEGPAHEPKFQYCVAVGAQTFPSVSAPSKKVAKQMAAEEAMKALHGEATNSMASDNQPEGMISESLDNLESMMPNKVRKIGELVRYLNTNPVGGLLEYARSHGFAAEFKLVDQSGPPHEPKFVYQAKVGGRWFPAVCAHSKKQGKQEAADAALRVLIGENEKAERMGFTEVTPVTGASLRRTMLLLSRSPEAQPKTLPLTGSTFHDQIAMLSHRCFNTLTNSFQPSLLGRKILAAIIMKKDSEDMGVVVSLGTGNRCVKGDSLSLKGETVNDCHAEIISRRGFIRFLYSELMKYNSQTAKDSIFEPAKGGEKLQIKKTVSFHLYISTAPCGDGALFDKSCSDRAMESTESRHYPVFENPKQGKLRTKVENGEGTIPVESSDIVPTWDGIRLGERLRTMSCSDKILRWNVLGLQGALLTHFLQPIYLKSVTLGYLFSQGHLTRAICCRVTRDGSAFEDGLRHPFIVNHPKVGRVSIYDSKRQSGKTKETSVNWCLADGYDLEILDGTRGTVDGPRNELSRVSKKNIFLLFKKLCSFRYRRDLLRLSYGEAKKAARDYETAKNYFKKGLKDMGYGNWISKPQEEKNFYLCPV
Source text: FIGS. 5A-5D show Biacore SPR analysis for binding of ADAR1i to ADAR1p110. (FIG. 5A) SPR analysis for binding kinetics of 8 compounds to ADAR1p110-WT. ADAR1 inhibition positive (ADAR1i-13, ADAR1i-120, ADAR1i-124) and negative compounds. (FIG. 5B, FIG. 5C) […] of SPR analysis for binding of ADAR1i-13 and ADAR1i-124 to ADAR1p110-WT and ADAR1p110-E912A as well as negative control proteins, GAPDH and HuR, are shown. […] ADAR1-E912, equivalent of ADAR2 E396, is located in the catalytic center.
No complete 3-D structure of ADAR1 is currently available. […] The glutamate E912 and E396 in ADAR1 and ADAR2, respectively, plays an important proton transfer function during hydrolytic deamination reaction (42, 43).

[3] = system: HeLa-Nluc-edit cells; experiment: First screen: FFL activity (cell viability/apoptosis) in reporter HeLa cells; conditions: FIG. 2C

ADAR, sequence (P55265 whole entry, species assumed): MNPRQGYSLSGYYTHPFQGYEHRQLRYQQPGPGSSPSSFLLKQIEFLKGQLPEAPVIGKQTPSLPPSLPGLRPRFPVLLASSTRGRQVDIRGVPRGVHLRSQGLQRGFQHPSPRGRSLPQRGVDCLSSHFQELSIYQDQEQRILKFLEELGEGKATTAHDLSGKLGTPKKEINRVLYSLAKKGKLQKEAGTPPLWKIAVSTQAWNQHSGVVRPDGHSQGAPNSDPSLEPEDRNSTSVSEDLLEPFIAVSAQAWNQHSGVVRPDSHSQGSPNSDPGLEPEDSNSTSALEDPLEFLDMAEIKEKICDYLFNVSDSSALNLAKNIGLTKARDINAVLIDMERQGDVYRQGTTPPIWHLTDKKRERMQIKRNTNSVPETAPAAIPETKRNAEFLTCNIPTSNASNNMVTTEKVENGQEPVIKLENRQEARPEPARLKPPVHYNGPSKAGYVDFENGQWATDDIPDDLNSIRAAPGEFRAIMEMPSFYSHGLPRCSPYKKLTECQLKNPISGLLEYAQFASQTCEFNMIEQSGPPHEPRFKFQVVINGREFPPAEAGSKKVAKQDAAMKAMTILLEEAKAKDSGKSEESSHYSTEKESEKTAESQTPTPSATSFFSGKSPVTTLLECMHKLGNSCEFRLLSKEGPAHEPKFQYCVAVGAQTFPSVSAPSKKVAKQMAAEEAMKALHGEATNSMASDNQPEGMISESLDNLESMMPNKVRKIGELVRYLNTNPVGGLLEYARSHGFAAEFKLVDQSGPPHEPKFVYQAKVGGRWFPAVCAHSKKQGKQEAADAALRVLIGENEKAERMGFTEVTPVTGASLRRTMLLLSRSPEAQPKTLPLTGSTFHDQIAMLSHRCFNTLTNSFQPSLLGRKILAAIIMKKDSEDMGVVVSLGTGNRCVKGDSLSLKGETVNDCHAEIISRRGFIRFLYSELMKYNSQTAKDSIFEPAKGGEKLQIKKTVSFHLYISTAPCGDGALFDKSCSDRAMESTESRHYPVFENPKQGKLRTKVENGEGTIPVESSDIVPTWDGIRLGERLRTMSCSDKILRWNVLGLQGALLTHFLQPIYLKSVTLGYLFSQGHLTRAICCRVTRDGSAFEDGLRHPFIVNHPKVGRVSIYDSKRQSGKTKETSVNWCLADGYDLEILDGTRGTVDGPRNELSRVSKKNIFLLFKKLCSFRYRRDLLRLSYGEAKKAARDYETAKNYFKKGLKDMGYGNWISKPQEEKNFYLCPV

Row | SMILES | Binding to ADAR1p110-WT [2] | other results
1 | Nc1ncnc2c1nnn2[C@@H]1O[C@H](CO)[C@@H](O)[C@H]1O [8-azaadenosine] | – | ADAR inhibition [1]: not ADAR inhibitors
2 | Nc1ncnc2c1nc(Cl)n2[C@@H]1O[C@H](CO)[C@@H](O)[C@H]1O [8-chloroadenosine] | – | ADAR inhibition [1]: not ADAR inhibitors
3 | COc1cccc2c1C(=O)c1c(O)c3c(c(O)c1C2=O)C[C@@](O)(C(=O)CO)C[C@@H]3O[C@H]1C[C@H](N)[C@H](O)[C@H](C)O1 [Doxorubicin] | – | Acute apoptosis detected by reduction of FFL activity [3]: induces acute apoptosis

Continued, in another order:

Row | Binding to ADAR1p110-WT [2] | SMILES | other results
4 | did not bind | N#Cc1ccc(NC(=O)c2nc3ccccc3[nH]2)cc1 [ADAR1i-122] | –
5 | did not bind | N#Cc1ccc(NC(=O)c2nc3c(N)ncnc3[nH]2)cc1 [ADAR1i-123] | –
6 | did not bind | N#Cc1ccc(NC(=O)c2cc3ccccc3s2)cc1 [ADAR1i-125] | –
7 | did not bind | N#Cc1ccc(NC(=O)c2[nH]c3ccccc3c2Cl)cc1 [ADAR1i-126] | –
